Common to all, as to assay type: cell-based
For experiment [1], the system named is MDA-MB-231 human breast cancer cells. The experiment in a line: Proliferation assay MDA-MB-231 (crystal violet). The following applies: MDA-MB-231 cells, 4 days, median, read-out: Prolif-MDA MB231 IC50 - [mol/l] (median). On the procedure:
(§1) 4. Proliferation assay: MDA-MB-231, CAL-120
(§2) Human tumour cells were originally obtained from the American Type Culture Collection (ATCC), or from the Deutsche Sammlung von Mikroorganismen and Zellkulturen (DSMZ, German Collection of Microorganisms and Cell Cultures). Cultivated tumour cells (CAL-120, human breast adenocarcinoma cells, DSMZ ACC-459; MDA-M B-231, human breast cancer cells, ATCC HTB-26) were plated at a density of 4,000 cells/well in a 96-well multititer plate in 200 microL of their respective growth medium supplemented 10% fetal calf serum. After 24 hours, the cells of one plate (zero-point plate) were stained with crystal violet (see below), while the medium of the other plates was supplemented with the test substances in various concentrations (0 micromol/L, as well as in the range of 0.01-10 micromol/L; the final concentration of the solvent dimethyl sulfoxide was adjusted to 0.1%) using a Tecan HP D300 Digital Dispenser. The cells were incubated for 4 days in the presence of test substances. Cell proliferation was determined by staining the cells with crystal violet: the cells were fixed by adding 20 microL/measuring point of an 11% glutaric aldehyde solution for 15 minutes at room temperature. After three washing cycles of the fixed cells with water, the plates were dried at room temperature. The cells were stained by adding 100 microL/measuring point of a 0.1% crystal violet solution (pH 3.0). After three washing cycles of the stained cells with water, the plates were dried at room temperature. The dye was dissolved by adding 100 microL/measuring point of a 10% acetic acid solution. The extinction was determined by photometry at a wavelength of 595 nm. The change of cell number, in percent, was calculated by normalization of the measured values to the extinction values of the zero-point plate(=0%) and the extinction of the untreated (0 μM) cells(=100%). The IC50 values (inhibitory concentration at 50% of maximal effect) were determined by means of a 4 parameter fit.

In experiment [2] the target is T1, CDK12 (Homo sapiens, UniProt Q9NYV4).
T1 construct: endogenous in cells; host or cells: CAL-120 human breast cancer cells (DSMZ ACC 459)
T1 sequence (Q9NYV4 whole entry): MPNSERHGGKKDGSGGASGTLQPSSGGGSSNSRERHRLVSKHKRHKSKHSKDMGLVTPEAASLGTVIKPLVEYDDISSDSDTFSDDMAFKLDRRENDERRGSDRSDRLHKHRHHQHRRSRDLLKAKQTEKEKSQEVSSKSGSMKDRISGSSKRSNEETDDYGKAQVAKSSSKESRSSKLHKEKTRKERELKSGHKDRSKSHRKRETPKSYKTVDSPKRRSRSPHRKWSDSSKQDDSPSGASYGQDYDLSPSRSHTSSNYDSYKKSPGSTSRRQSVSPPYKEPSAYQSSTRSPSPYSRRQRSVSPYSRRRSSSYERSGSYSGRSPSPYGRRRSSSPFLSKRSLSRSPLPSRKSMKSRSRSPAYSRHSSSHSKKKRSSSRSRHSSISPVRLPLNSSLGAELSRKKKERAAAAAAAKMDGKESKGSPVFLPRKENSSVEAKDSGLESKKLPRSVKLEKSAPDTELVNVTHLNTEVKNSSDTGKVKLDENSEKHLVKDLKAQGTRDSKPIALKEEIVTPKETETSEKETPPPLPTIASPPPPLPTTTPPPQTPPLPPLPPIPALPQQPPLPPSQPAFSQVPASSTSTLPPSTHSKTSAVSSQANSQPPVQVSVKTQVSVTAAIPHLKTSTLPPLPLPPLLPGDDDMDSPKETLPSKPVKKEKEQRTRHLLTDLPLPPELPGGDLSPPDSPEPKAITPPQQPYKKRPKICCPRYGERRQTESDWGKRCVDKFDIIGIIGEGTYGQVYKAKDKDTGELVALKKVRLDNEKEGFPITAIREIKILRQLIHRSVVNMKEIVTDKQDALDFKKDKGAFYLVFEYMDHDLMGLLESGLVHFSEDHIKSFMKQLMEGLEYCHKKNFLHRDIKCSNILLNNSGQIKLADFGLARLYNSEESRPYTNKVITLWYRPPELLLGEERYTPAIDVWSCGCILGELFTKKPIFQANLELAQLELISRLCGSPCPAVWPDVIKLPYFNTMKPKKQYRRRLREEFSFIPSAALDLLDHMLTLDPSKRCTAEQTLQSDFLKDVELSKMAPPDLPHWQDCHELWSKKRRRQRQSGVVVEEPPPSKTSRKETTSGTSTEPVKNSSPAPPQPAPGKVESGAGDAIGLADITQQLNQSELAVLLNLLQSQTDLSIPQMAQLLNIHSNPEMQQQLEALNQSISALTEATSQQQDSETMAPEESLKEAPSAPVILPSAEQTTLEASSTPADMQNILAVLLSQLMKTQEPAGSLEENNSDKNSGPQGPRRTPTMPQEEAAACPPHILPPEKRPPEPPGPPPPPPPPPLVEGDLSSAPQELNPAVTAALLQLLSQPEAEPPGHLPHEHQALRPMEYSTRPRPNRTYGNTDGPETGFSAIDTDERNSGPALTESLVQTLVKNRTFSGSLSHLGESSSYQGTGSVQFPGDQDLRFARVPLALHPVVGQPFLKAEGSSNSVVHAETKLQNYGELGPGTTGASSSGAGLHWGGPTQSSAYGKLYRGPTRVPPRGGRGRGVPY
T1 sequence (O75909 whole entry partner): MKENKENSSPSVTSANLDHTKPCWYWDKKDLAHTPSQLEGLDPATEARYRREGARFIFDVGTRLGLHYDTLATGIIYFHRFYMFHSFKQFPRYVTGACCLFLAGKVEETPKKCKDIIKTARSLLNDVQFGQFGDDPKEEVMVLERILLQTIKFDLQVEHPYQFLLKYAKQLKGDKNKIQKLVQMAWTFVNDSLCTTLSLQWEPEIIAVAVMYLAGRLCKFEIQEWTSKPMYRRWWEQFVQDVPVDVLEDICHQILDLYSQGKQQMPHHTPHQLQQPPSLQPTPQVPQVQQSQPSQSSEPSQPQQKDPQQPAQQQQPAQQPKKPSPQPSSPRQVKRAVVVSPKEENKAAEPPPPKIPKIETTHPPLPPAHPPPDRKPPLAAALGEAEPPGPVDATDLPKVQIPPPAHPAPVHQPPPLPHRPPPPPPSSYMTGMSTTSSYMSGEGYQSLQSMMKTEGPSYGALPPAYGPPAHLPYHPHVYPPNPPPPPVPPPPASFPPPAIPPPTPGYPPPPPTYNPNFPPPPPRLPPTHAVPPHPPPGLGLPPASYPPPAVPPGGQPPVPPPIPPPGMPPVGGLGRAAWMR
The experiment can be described thus: CDK12 nuclear protein level: immunofluorescence/high content analysis in CAL-120 cells. The following applies: for DC50: CAL-120 cells, 24 h, nuclear CDK12 staining intensity, median, read-out: CDK12 degradation IF DC50 - [mol/l] (median); for (IC50 CDK12 high ATP) to (Degradation DC50 CDK12) ratio: ratio of IC50 CDK12 hATP (2 mM ATP) to DC50 CDK12 (IF, CAL-120). Here is the method: 6. CDK12 Nuclear Protein Level: Immunofluorescence/High Content Analysis
In the context of the present invention, the term “DC50 CDK12” refers to the DC50 values obtained according to the assay described in this section (6) herein below, i.e. the DC50 values for the degradation of CDK12.:
CAL-120 human breast cancer cells (DSMZ ACC 459) are seeded in 1536-well microtiter plates (800 cells per well) containing 50 nanoL of compounds in Dose-Response. Control wells received DMSO or Reference Example 1. Plates are then incubated for 24 h at 37° C. in an humidified incubator and fixed with 4% PFA for 10 min. Then immunofluorescence (IF) against CDK12 (CellSignalling CDK12 Antibody #11973, rabbit, 1:100 dilution) is performed using standard IF protocols. Cells are then stained with Hoechst 33342 (Life Technologies, H-1399, 0.1 microg/mL) and imaged on an automated confocal microscopy system (e.g. Perkin Elmer Opera Phenix). Nuclear and cytoplasmic intensity as well as the nuclear/cytoplasmic intensity ratio is determined by automated image analysis using custom generated scripts (MetaXpress). Data is then transferred to Genedata Screener software, normalized to DMSO and control and DC50 values (degrading concentration to achieve 50% reduction of nuclear CDK12 staining intensity relative to controls) are reported.

For experiment [3], the system named is CAL-120 human breast adenocarcinoma cells. The experiment can be described thus: Proliferation assay CAL-120 (crystal violet). The note with it: CAL-120 cells, 4 days, median, read-out: Prolif-CAL-120— IC50 - [mol/l] (median). Here is the method: as §1, §2

Each structure is given as a SMILES string. Read-outs that look alike come from different tables or passages of the source. Where only a bound is given, the exact number is not on record here.

Take `c1ccc2[nH]c(CNc3nn(C4CCOC4)c4nc(C5CC5)cnc34)nc2c1` (single isomer, unassigned) [Example 18, (-) or (+) -N-[(1H-benzimidazol-2-yl)methyl]-6-cyclopropyl-1-[oxolan-3-yl]-1H-pyrazolo[3,4-b]pyrazin-3-amine]: the IC50 in experiment [1] amounted to 0.151 µM; in experiment [3], 0.0719 µM. Moreover, the DC50 in experiment [2] stood at 0.0175 µM. The “(IC50 CDK12 high ATP) to (Degradation DC50 CDK12) ratio” value in experiment [2] is >1142.

Take `CC(CCN(C)C)n1nc(NCc2nc3ccccc3[nH]2)c2ncc(C3CC3)nc21` (single isomer, unassigned) [Example 63, (+) or (−)-N-[(1H-benzimidazol-2-yl)methyl]-6-cyclopropyl-1-[4-(dimethylamino)butan-2-yl]-1H-pyrazolo[3,4-b]pyrazin-3-amine]: the IC50 in experiment [1] worked out at 1.78 µM. In experiment [2], the DC50 worked out at 0.912 µM and the “(IC50 CDK12 high ATP) to (Degradation DC50 CDK12) ratio” value was >22. Also, the IC50 in experiment [3] amounted to 0.878 µM.

Turning to `CN1CCC(n2nc(NCc3nc4ccccc4[nH]3)c3ncc(C4CC4)nc32)C1` (single isomer, unassigned) [Example 78, (+) or (−)-N-[(1H-benzimidazol-2-yl)methyl]-6-cyclopropyl-1-(1-methylpyrrolidin-3-yl)-1H-pyrazolo[3,4-b]pyrazin-3-amine], the IC50 in experiment [1] worked out at 0.0347 µM. In experiment [2], the DC50 was 0.0336 µM and the “(IC50 CDK12 high ATP) to (Degradation DC50 CDK12) ratio” value was >596. In addition, the IC50 in experiment [3] was found to be 0.0112 µM.

With `CN1CCC(n2nc(NCc3nc4cc(F)c(F)cc4[nH]3)c3ncc(C4CC4)nc32)CC1` [Example 30, 6-cyclopropyl-N-[(5,6-difluoro-1H-benzimidazol-2-yl)methyl]-1-(1-methylpiperidin-4-yl)-1H-pyrazolo[3,4-b]pyrazin-3-amine], in experiment [1] (Homo sapiens, MDA-MB-231, 96 h), the IC50 came to 0.0299 µM. In experiment [2], the DC50 amounted to 0.0171 µM and the “(IC50 CDK12 high ATP) to (Degradation DC50 CDK12) ratio” value is on record as >1376. In addition, the IC50 in experiment [3] (Homo sapiens, CAL-120, 96 h) was found to be 0.0134 µM.

Turning to `CN1CCC(n2nc(NCc3nc4ccccc4[nH]3)c3ncc(C4CC4)nc32)C1` (racemic) [Example 35, (±)-N-[(1H-benzimidazol-2-yl)methyl]-6-cyclopropyl-1-(1-methylpyrrolidin-3-yl)-1H-pyrazolo[3,4-b]pyrazin-3-amine], the IC50 in experiment [1] (Homo sapiens, MDA-MB-231, 96 h) amounted to 0.0595 µM. Moreover, in experiment [2], the DC50 was determined as 0.0191 µM and the “(IC50 CDK12 high ATP) to (Degradation DC50 CDK12) ratio” value was >1046. Besides, in experiment [3] (Homo sapiens, CAL-120, 96 h), the IC50 was determined as 0.0117 µM.

Turning to `CN1CCC(n2nc(NCc3nc4ccccc4[nH]3)c3ncc(C4CC4)nc32)C1` (single isomer, unassigned) [Example 79, (−) or (+)-N-[(1H-benzimidazol-2-yl)methyl]-6-cyclopropyl-1-(1-methylpyrrolidin-3-yl)-1H-pyrazolo[3,4-b]pyrazin-3-amine], the IC50 amounted to 0.217 µM in experiment [1] and 0.0714 µM in experiment [3]. Also, in experiment [2], the DC50 is 0.0412 µM.

With `CN1CCC(n2nc(NCc3nc4cc(Cl)ccc4[nH]3)c3ncc(C4CC4)nc32)CC1` [Example 22, N-[(5-chloro-1H-benzimidazol-2-yl)methyl]-6-cyclopropyl-1-(1-methylpiperidin-4-yl)-1H-pyrazolo[3,4-b]pyrazin-3-amine], the IC50 in experiment [1] (Homo sapiens, MDA-MB-231, 96 h) came out at 0.00802 µM. In experiment [2], the DC50 was found to be 0.0118 µM and the “(IC50 CDK12 high ATP) to (Degradation DC50 CDK12) ratio” value was >1695. Further, the IC50 in experiment [3] (Homo sapiens, CAL-120, 96 h) was determined as 0.00421 µM.

Take `Cc1c(F)ccc2[nH]c(CNc3nn(C4CCN(C)CC4)c4nc(C5CC5)cnc34)nc12` [Example 26, 6-cyclopropyl-N-[(5-fluoro-4-methyl-1H-benzimidazol-2-yl)methyl]-1-(1-methylpiperidin-4-yl)-1H-pyrazolo[3,4-b]pyrazin-3-amine]: in experiment [1] (Homo sapiens, MDA-MB-231, 96 h), the IC50 was 0.0222 µM. In experiment [2], the DC50 turned out to be 0.016 µM and the “(IC50 CDK12 high ATP) to (Degradation DC50 CDK12) ratio” value was >509. In addition, the IC50 in experiment [3] (Homo sapiens, CAL-120, 96 h) amounted to 0.0101 µM.

On to `CN1CCC(n2nc(NCc3nc4c(Cl)c(F)ccc4[nH]3)c3ncc(C4CC4)nc32)CC1` [Example 31, N-[(4-chloro-5-fluoro-1H-benzimidazol-2-yl)methyl]-6-cyclopropyl-1-(1-methylpiperidin-4-yl)-1H-pyrazolo[3,4-b]pyrazin-3-amine], for which the IC50 in experiment [1] (Homo sapiens, MDA-MB-231, 96 h) stood at 0.0182 µM; in experiment [3] (Homo sapiens, CAL-120, 96 h), 0.00709 µM. In experiment [2], the DC50 was 0.0144 µM. The “(IC50 CDK12 high ATP) to (Degradation DC50 CDK12) ratio” value in experiment [2] is >1388.

`FC1(F)CCC(n2nc(NCc3nc4ccccc4[nH]3)c3ncc(C4CC4)nc32)CC1` [Example 36, N-[(1H-benzimidazol-2-yl)methyl]-6-cyclopropyl-1-(4,4-difluorocyclohexyl)-1H-pyrazolo[3,4-b]pyrazin-3-amine]: the IC50 in experiment [1] (Homo sapiens, MDA-MB-231, 96 h) worked out at 0.114 µM; in experiment [3] (Homo sapiens, CAL-120, 96 h), 0.0488 µM. For the same compound, the DC50 in experiment [2] was 0.162 µM. Moreover, the “(IC50 CDK12 high ATP) to (Degradation DC50 CDK12) ratio” value in experiment [2] is on record as >124.

Consider `CC(C)(C)OC(=O)N1CCC(n2nc(NCc3nc4ccccc4[nH]3)c3ncc(C4CC4)nc32)CC1` [Example 11, tert-butyl 4-(3-{[(1H-benzimidazol-2-yl)methyl]amino}-6-cyclopropyl-1H-pyrazolo[3,4-b]pyrazin-1-yl)piperidine-1-carboxylate], for which the IC50 in experiment [1] (Homo sapiens, MDA-MB-231, 96 h) is 0.176 µM; in experiment [3] (Homo sapiens, CAL-120, 96 h), 0.0814 µM. Further, the DC50 in experiment [2] was found to be 0.0749 µM. Moreover, the “(IC50 CDK12 high ATP) to (Degradation DC50 CDK12) ratio” value in experiment [2] is on record as >267.

On to `CN1CCC(n2nc(NCc3nc4c(F)c(F)ccc4[nH]3)c3ncc(C4CC4)nc32)CC1` [Example 9, 6-cyclopropyl-N-[(4,5-difluoro-1H-benzimidazol-2-yl)methyl]-1-(1-methylpiperidin-4-yl)-1H-pyrazolo[3,4-b]pyrazin-3-amine], for which, in experiment [1] (Homo sapiens, MDA-MB-231, 96 h), the IC50 stood at 0.0412 µM. For the same compound, in experiment [2], the DC50 was 0.00807 µM and the “(IC50 CDK12 high ATP) to (Degradation DC50 CDK12) ratio” value is >2478. In addition, the IC50 in experiment [3] (Homo sapiens, CAL-120, 96 h) is 0.00678 µM.

As to `CC(CCN(C)C)n1nc(NCc2nc3ccccc3[nH]2)c2ncc(C3CC3)nc21` (racemic) [Example 62, (±)-N-[(1H-benzimidazol-2-yl)methyl]-6-cyclopropyl-1-[4-(dimethylamino)butan-2-yl]-1H-pyrazolo[3,4-b]pyrazin-3-amine], the IC50 in experiment [1] (Homo sapiens, MDA-MB-231, 96 h) is 0.873 µM; in experiment [3] (Homo sapiens, CAL-120, 96 h), 0.301 µM. Besides, the DC50 in experiment [2] came to 0.676 µM.

Source of the values: patent US20230192700A1, “PYRAZOLOPYRAZINES ACTING ON CANCERS VIA INHIBITION OF CDK12” (Bayer Aktiengesellschaft, priority 2020, published 2023).
